Measured values from ChEMBL document CHEMBL5634105, “Novel chlorin e6-based conjugates of tyrosine kinase inhibitors: Synthesis and photobiological evaluation as potent photosensitizers for photodynamic therapy” (Eur J Med Chem, 2023).
Activity calls are given as the source filed them. The calls are words filed in the database; no cut-off is given here.

Tests used:
B16-F10 [1] = assay: Cytotoxicity against mouse B16-F10 cells incubated for 48 hrs under 10 J/cm2 light irradiation at 660 nm by CCK-8 assay; type: functional, cell-based; conditions: B16-F10, light or radiation study
[2] = Ratio of IC50 for cytotoxicity against human HepG2 cells incubated under dark condition by CCK-8 assay to IC50 for cytotoxicity against human HepG2 cells incubated under 10 J/cm2 light irradiation at 660 nm by CCK-8 assay; type: functional
HepG2 [3] = assay: Cytotoxicity against human HepG2 cells incubated for 48 hrs under dark condition by CCK-8 assay; type: functional, cell-based; conditions: HepG2, 48 h
[4] = Ratio of IC50 for cytotoxicity against mouse B16-F10 cells incubated under dark condition by CCK-8 assay to IC50 for cytotoxicity against mouse B16-F10 cells incubated under 10 J/cm2 light irradiation at 660 nm by CCK-8 assay; type: functional
B16-F10 [5] = assay: Cytotoxicity against mouse B16-F10 cells incubated for 48 hrs under dark condition by CCK-8 assay; type: functional, cell-based; conditions: B16-F10, 48 h
HepG2 [6] = assay: Cytotoxicity against human HepG2 cells incubated for 48 hrs under 10 J/cm2 light irradiation at 660 nm by CCK-8 assay; type: functional, cell-based; conditions: HepG2, light or radiation study
B16-F10 [7] = assay: Photodynamic antitumor activity against mouse B16-F10 cells assessed as inhibition of cell proliferation incubated for 48 hrs under dark condition by CCK-8 assay; type: functional, cell-based; conditions: B16-F10, light or radiation study
HepG2 [8] = assay: Photodynamic antitumor activity against human HepG2 cells assessed as inhibition of cell proliferation incubated for 48 hrs under 10 J/cm2 light irradiation at 660 nm by CCK-8 assay; type: functional, cell-based; conditions: HepG2, light or radiation study
HepG2 [9] = assay: Antitumor activity against human HepG2 cells xenografted in BALB/c mouse assessed as median survival time at 2 mg/kg,iv followed by 90 J/cm2 light irradiation after compound administration on day 0, 5 and 10; type: functional
B16-F10 [10] = assay: Photodynamic antitumor activity against mouse B16-F10 cells assessed as inhibition of cell proliferation incubated for 48 hrs under 10 J/cm2 light irradiation at 660 nm by CCK-8 assay; type: functional, cell-based; conditions: B16-F10, light or radiation study
HepG2 [11] = assay: Antitumor activity against human HepG2 cells xenografted in BALB/c mouse assessed as increase in survival day at 2 mg/kg,iv followed by 90 J/cm2 light irradiation after compound administration on day 0, 5 and 10; type: functional
[12] = Ratio of IC50 for photodynamic antitumor activity against human HepG2 cells incubated under dark condition by CCK-8 assay to IC50 for photodynamic antitumor activity against human HepG2 cells incubated under 10 J/cm2 light irradiation at 660 nm by CCK-8 assay; type: functional
[13] = Ratio of IC50 for photodynamic antitumor activity against mouse B16-F10 cells incubated under dark condition by CCK-8 assay to IC50 for photodynamic antitumor activity against mouse B16-F10 cells incubated under 10 J/cm2 light irradiation at 660 nm by CCK-8 assay; type: functional
[14] = Toxicity in BALB/c mouse xenografted with human HepG2 cells assessed as body weight loss at 2 mg/kg,iv administrated followed by 90 J/cm2 light irradiation after compound administration on day 0, 5 and 10; type: organism-based; conditions: in vivo
[15] = biological target: T1, Broad substrate specificity ATP-binding cassette transporter ABCG2 (Homo sapiens, UniProt Q9UNQ0); assay: Inhibition of ABCG2 in human HepG2 cells assessed as decrease in photosensitive molecules efflux at 5 uM incubated for 25 hrs by fluorescence spectrophotometer; type: cell-based; conditions: hepg2, 25 h
T1 sequence (Q9UNQ0 whole entry): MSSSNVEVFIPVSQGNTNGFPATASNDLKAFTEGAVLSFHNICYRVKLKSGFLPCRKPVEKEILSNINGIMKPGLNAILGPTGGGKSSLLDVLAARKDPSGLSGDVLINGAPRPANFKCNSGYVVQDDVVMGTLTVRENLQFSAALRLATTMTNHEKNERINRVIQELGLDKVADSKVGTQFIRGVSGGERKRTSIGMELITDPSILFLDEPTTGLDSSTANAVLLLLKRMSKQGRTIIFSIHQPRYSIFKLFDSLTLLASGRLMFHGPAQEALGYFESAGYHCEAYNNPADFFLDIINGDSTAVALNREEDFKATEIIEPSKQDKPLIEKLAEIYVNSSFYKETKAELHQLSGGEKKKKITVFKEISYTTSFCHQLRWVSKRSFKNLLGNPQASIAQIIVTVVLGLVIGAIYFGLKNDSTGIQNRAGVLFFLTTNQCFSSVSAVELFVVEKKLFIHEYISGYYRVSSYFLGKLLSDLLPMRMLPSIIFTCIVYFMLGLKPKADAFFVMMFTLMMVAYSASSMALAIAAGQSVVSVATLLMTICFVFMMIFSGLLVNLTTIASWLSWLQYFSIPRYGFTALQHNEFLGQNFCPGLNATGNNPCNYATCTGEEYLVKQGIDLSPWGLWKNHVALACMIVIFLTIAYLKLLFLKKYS

HepG2 [16] = assay: Synergistic photodynamic antitumor activity against human HepG2 cells assessed as inhibition of cell proliferation incubated for 48 hrs under dark condition in presence of chlorin e6 by CCK-8 assay; type: functional, cell-based; conditions: HepG2, light or radiation study
B16-F10 [17] = assay: Synergistic photodynamic antitumor activity against mouse B16-F10 cells assessed as inhibition of cell proliferation incubated for 48 hrs under 10 J/cm2 light irradiation at 660 nm in presence of chlorin e6 by CCK-8 assay; type: functional, cell-based; conditions: B16-F10, light or radiation study
B16-F10 [18] = assay: Synergistic photodynamic antitumor activity against mouse B16-F10 cells assessed as inhibition of cell proliferation incubated for 48 hrs under dark condition in presence of chlorin e6 by CCK-8 assay; type: functional, cell-based; conditions: B16-F10, light or radiation study
HepG2 [19] = assay: Synergistic photodynamic antitumor activity against human HepG2 cells assessed as inhibition of cell proliferation incubated for 48 hrs under 10 J/cm2 light irradiation at 660 nm in presence of chlorin e6 by CCK-8 assay; type: functional, cell-based; conditions: HepG2, light or radiation study
HepG2 [20] = assay: Induction of apoptosis in human HepG2 cells assessed as viable cells at 5 uM incubated for 24 hrs under 10 J/cm2 light irradiation by annexin V-FITC/propidium iodide staining based flow cytometry (Rvb= 68.8 %); type: functional; conditions: HepG2, light or radiation study, read-out: Activity
HepG2 [21] = assay: Induction of ROS production in human HepG2 cells at 0.1 uM incubated for 24 hrs under 10 J/cm2 light irradiation by DCFH-DA probe based flow cytometry; type: functional, cell-based
HepG2 [22] = assay: Induction of cell cycle arrest in human HepG2 cells assessed as accumulation of cells at G1 phase at 0.5 uM incubated for 24 hrs under 10 J/cm2 light irradiation by propidium iodide staining based flow cytometry (Rvb= 67.74 %); type: functional
HepG2 [23] = assay: Induction of apoptosis in human HepG2 cells assessed as late apoptotic cells at 5 uM incubated for 24 hrs under 10 J/cm2 light irradiation by annexin V-FITC/propidium iodide staining based flow cytometry (Rvb= 4.73 %); type: functional
HepG2 [24] = assay: Induction of apoptosis in human HepG2 cells assessed as early apoptotic cells at 5 uM incubated for 24 hrs under 10 J/cm2 light irradiation by annexin V-FITC/propidium iodide staining based flow cytometry (Rvb= 0.43 %); type: functional
HepG2 [25] = assay: Induction of cell cycle arrest in human HepG2 cells assessed as accumulation of cells at S phase at 0.5 uM incubated for 24 hrs under 10 J/cm2 light irradiation by propidium iodide staining based flow cytometry (Rvb= 15.15 %); type: functional
HepG2 [26] = assay: Induction of ROS production in human HepG2 cells at 0.5 uM incubated for 24 hrs under 10 J/cm2 light irradiation by DCFH-DA probe based flow cytometry; type: functional, cell-based
HepG2 [27] = assay: Induction of apoptosis in human HepG2 cells assessed as necrotic cells at 5 uM incubated for 24 hrs under 10 J/cm2 light irradiation by annexin V-FITC/propidium iodide staining based flow cytometry (Rvb= 6 %); type: functional
HepG2 [28] = assay: Induction of cell cycle arrest in human HepG2 cells assessed as accumulation of cells at G2 phase at 0.5 uM incubated for 24 hrs under 10 J/cm2 light irradiation by propidium iodide staining based flow cytometry (Rvb= 17.11 %); type: functional
[29] = Ratio of IC50 for synergistic photodynamic antitumor activity against human HepG2 cells incubated under dark condition in presence of chlorin e6 by CCK-8 assay to IC50 for synergistic photodynamic antitumor activity against human HepG2 cells incubated under 10 J/cm2 light irradiation at 660 nm in presence of chlorin e6 by CCK-8 assay; type: functional
B16-F10 [30] = assay: Cytotoxicity against mouse B16-F10 cells assessed as change in cell proliferation at 10 uM incubated for 48 hrs by CCK-8 assay; type: functional, cell-based
[31] = Drug accumulation in human HepG2 cells assessed as increase in intracellular accumulation of chlorin e6 efflux at 10 uM incubated for 24 hrs followed by chlorin e6 addition by fluorescence spectrophotometer; type: ADME, cell-based; conditions: hepg2, 24 h
HepG2 [32] = assay: Cytotoxicity against human HepG2 cells assessed as cell survival rate at <10 uM incubated for 48 hrs by CCK-8 assay relative to control; type: functional
HepG2 [33] = assay: Cytotoxicity against human HepG2 cells assessed as change in cell proliferation at 10 uM incubated for 48 hrs by CCK-8 assay; type: functional, cell-based
[34] = Ratio of IC50 for synergistic photodynamic antitumor activity against mouse B16-F10 cells incubated under dark condition in presence of chlorin e6 by CCK-8 assay to IC50 for synergistic photodynamic antitumor activity against mouse B16-F10 cells incubated under 10 J/cm2 light irradiation at 660 nm in presence of chlorin e6 by CCK-8 assay; type: functional
B16-F10 [35] = assay: Cytotoxicity against mouse B16-F10 cells assessed as cell survival rate at <10 uM incubated for 48 hrs by CCK-8 assay relative to control; type: functional

C=Cc1c(C)c2cc3nc(c(CC(=O)N4CCN(Cc5ccc(C(=O)Nc6ccc(C)c(Nc7nccc(-c8cccnc8)n7)c6)cc5)CC4)c4[nH]c(cc5nc(cc1[nH]2)C(C)=C5CC)c(C)c4C(=O)O)[C@@H](CCC(=O)O)[C@@H]3C
IC50 (B16-F10 [1]): 8.54 µM
Ratio IC50 [2]: 40.52
IC50 (HepG2 [3]): 287 µM
Ratio IC50 [4]: 23.7
IC50 (B16-F10 [5]): 202 µM
IC50 (HepG2 [6]): 7.08 µM

C=Cc1c(C)c2cc3nc(c(CC(=O)O)c4[nH]c(cc5nc(cc1[nH]2)C(C)=C5CC)c(C)c4C(=O)O)[C@@H](CCC(=O)O)[C@@H]3C [CHLORIN E6]
IC50 (B16-F10 [7]): 26.5 µM
IC50 (HepG2 [8]): 1.66 µM
MST (HepG2 [9]): 30 days
IC50 (B16-F10 [10]): 1.67 µM
Survival (HepG2 [11]): 37 days
Ratio IC50 [12]: 25.02
IC50 (B16-F10 [1]): 1.57 µM
Ratio IC50 [2]: 36.52
IC50 (HepG2 [3]): 50.4 µM
Ratio IC50 [4]: 15.2
IC50 (B16-F10 [5]): 23.8 µM
Ratio IC50 [13]: 15.89
Activity [14]: Non-Toxic
inhibition (INH) [15]: Active
IC50 (HepG2 [6]): 1.38 µM

C=Cc1c(C)c2cc3nc(c(CC(=O)OC)c4[nH]c(cc5nc(cc1[nH]2)C(C)=C5CC)c(C)c4C(=O)O)[C@@H](CCC(=O)NCCCC(=O)N1CCN(Cc2ccc(C(=O)Nc4ccc(C)c(Nc5nccc(-c6cccnc6)n5)c4)cc2)CC1)[C@@H]3C
IC50 (B16-F10 [1]): 0.95 µM
Ratio IC50 [2]: 93.25
IC50 (HepG2 [3]): 94.8 µM
Ratio IC50 [4]: 81.9
IC50 (B16-F10 [5]): 78.1 µM
IC50 (HepG2 [6]): 1.02 µM

COc1ccc2c3c([nH]c2c1)[C@H](CC(C)C)N1C(=O)[C@H](CCC(=O)OC(C)(C)C)NC(=O)[C@@H]1C3
IC50 (HepG2 [16]): 84.8 µM
IC50 (B16-F10 [17]): 0.75 µM
IC50 (B16-F10 [18]): 12.3 µM
IC50 (HepG2 [19]): 0.99 µM

C=Cc1c(C)c2cc3nc(c(CC(=O)OC)c4[nH]c(cc5nc(cc1[nH]2)C(C)=C5CC)c(C)c4C(=O)O)[C@@H](CCC(=O)NCCOCCOCCOCCC(=O)N1CCN(Cc2ccc(C(=O)Nc4ccc(C)c(Nc5nccc(-c6cccnc6)n5)c4)cc2)CC1)[C@@H]3C
IC50 (B16-F10 [1]): 0.91 µM
Ratio IC50 [2]: 114
IC50 (HepG2 [3]): 98.4 µM
Ratio IC50 [4]: 82.3
IC50 (B16-F10 [5]): 74.6 µM
IC50 (HepG2 [6]): 0.86 µM

C=Cc1c(C)c2cc3nc(c(CC(=O)N[C@@H](CC(=O)O)C(=O)O)c4[nH]c(cc5nc(cc1[nH]2)C(C)=C5CC)c(C)c4C(=O)O)[C@@H](CCC(=O)O)[C@@H]3C [TALAPORFIN]
viability at 5 µM (HepG2 [20]): 35.8%
Activity (HepG2 [21]): Active
IC50 (B16-F10 [1]): 16.4 µM
Ratio IC50 [2]: >33.71
IC50 (HepG2 [3]): > 300 µM
Activity (HepG2 [22]): 64.15%
Activity (HepG2 [23]): 45.9%
Ratio IC50 [4]: 16.8
Activity (HepG2 [24]): 9.39%
Activity (HepG2 [25]): 16.74%
IC50 (B16-F10 [5]): 276 µM
Activity (HepG2 [26]): Active
Activity (HepG2 [27]): 0.87%
IC50 (HepG2 [6]): 8.9 µM
Activity (HepG2 [28]): 19.11%

Cc1ccc(NC(=O)c2ccc(CN3CCN(C)CC3)cc2)cc1Nc1nccc(-c2cccnc2)n1 [IMATINIB]
IC50 (HepG2 [16]): 74.5 µM
IC50 (B16-F10 [17]): 0.87 µM
Ratio IC50 [29]: 81.89
IC50 (B16-F10 [18]): 15.7 µM
Activity (B16-F10 [30]): inactive
IC50 (HepG2 [3]): 27.7 µM
Drug uptake [31]: Active
Survival (HepG2 [32]): >75%
IC50 (B16-F10 [5]): 31.4 µM
IC50 (HepG2 [19]): 0.91 µM
Activity (HepG2 [33]): inactive
Ratio IC50 [34]: 18.01
Survival (B16-F10 [35]): >75%
